The values that follow are results of earlier work, collected in patent US20250152607A1, “COMPOSITIONS FOR VITAMIN D PRODUCTION” (DR WELLER LIMITED, priority 2022, published 2025).

The conditions of series [1]: powder.

On to `CC(C)[C@@H](C)/C=C/[C@@H](C)[C@H]1CC[C@H]2C3=CC=C4C[C@@H](O)CC[C@]4(C)[C@H]3CC[C@]12C` [Ergosterol], for which the skin irritancy entry in series [1] is “skin irritant”.

As for `CC1=C(/C=C\C2=CCC[C@]3(C)[C@@H]([C@H](C)CCCC(C)C)CC[C@@H]23)C[C@@H](O)CC1` [pre-vitamin D3], the “increase in rate of reaction for vitamin D3 formation from pre-vitamin D3” value (by interaction with membrane phospholipids) is recorded as “more than 10 fold”.

Take pre-vitamin D: the “time for isomerization of pre-vitamin D to vitamin D to reach equilibrium” value (in hexane at 37° C.) was “up to 10 days”.
